Assay [1] concerns the target T1, BCDIN3D (Homo sapiens, UniProt Q7Z5W3).
T1 sequence (Q7Z5W3 1-292): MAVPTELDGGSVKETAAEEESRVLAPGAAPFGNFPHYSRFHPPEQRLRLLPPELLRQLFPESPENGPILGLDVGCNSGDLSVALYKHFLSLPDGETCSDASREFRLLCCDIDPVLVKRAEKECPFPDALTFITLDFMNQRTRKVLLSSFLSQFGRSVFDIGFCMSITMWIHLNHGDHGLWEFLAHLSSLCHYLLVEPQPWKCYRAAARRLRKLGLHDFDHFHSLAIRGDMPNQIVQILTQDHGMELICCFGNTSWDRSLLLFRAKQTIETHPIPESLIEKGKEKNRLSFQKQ
In words: BCDIN3D IC50 RFMS (RapidFire) assay with mini-helix. The assay is classed as biochemical. The conditions noted are these: 25 nM enzyme. The procedure, abridged:
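SAH formation was measured by RapidFire mass spectrometry with D4- and 13C10-SAH internal standards after TCA quench. Substrates 6 μM SAM and 0.2 μM mini-helix reacted 1 h at 37 °C with 25 nM enzyme, which had been preincubated 10 min with compound (1% DMSO) in Tris pH 8.0 buffer with DTT, EDTA, BSA.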

The target of assay [2] is T1, BCDIN3D. The assay can be described thus: BCDIN3D InCellPulse thermal stability assay in transfected A549 cells. Type of assay: cell-based. The conditions noted are these: heat shock 58° C. 15 min. The procedure, abridged: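 Thermal stabilisation read-out: after a 15 min 58 °C heat shock, ePL-tagged BCDIN3D in transiently transfected A549 cells (1500/well) was quantified by enzyme-fragment complementation luminescence. Compounds were pre-incubated with cells 1 h at 37 °C, 0.6% DMSO final.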

[3] abbreviates: mini-helix substrate 0.2 μM, SAM 6 μM.
Setting [4] is: transiently transfected A549 cells.
Setting [5] is: mini-helix 0.2 μM and SAM 6 μM as substrates, 1 hr at 37° C.
Setting [6] is: A549 cells transiently transfected with ePL-BCDIN3D, 1 h pre-incubation.

From patent US20220370453A1 (Storm Therapeutics Ltd, priority 2019, published 2022) come the findings set out here.

Structures are written as SMILES.

Turning to `Cn1ncc2c(NC(C)(C)C)nc(NCC(N)c3ccccc3F)nc21` (centres unmarked) [Compound 5.13, N6-[2-amino-2-(2-fluorophenyl)ethyl]-N4-tert-butyl-1-methyl-pyrazolo[3,4-d]pyrimidine-4,6-diamine], the IC50 came to 383 nM against BCDIN3D [1] (setting [3]) and 525 nM on BCDIN3D [2] (setting [4]).
Regarding `[2H]C([2H])([2H])n1ncc2c(NC(C)(C)C)nc(NCC(N)c3ccccc3F)nc21` (centres unmarked) [Compound 5.14, N6-[2-amino-2-(2-fluorophenyl)ethyl]-N4-tert-butyl-1-(trideuteriomethyl)pyrazolo[3,4-d]pyrimidine-4,6-diamine], the IC50 was 294 nM on BCDIN3D [1] (setting [3]) and 429 nM against BCDIN3D [2] (setting [4]).
With `CC(C)Nc1nc(NC[C@H](N)c2cccc(Br)c2)nc2c1cnn2C` [Compound 5.15, N6-[(2R)-2-amino-2-(3-bromophenyl)ethyl]-N4-isopropyl-1-methyl-pyrazolo[3,4-d]pyrimidine-4,6-diamine], the IC50 worked out at 28.4 nM against BCDIN3D [1] (setting [3]) and 47.1 nM on BCDIN3D [2] (setting [4]).
As for `Cn1ncc2c(NC(C)(C)C(F)(F)F)nc(NC[C@H](N)c3cccc(Br)c3)nc21` [Compound 5.16, N6-[(2R)-2-amino-2-(3-bromophenyl)ethyl]-1-methyl-N4-(2,2,2-trifluoro-1,1-dimethyl-ethyl)pyrazolo[3,4-d]pyrimidine-4,6-diamine], the IC50 came out at 41.7 nM against BCDIN3D [1] (setting [3]) and 38.5 nM against BCDIN3D [2] (setting [4]).
With `CNc1nc(NCC(N)c2cccc(Br)c2)nc2c1cnn2C` (centres unmarked) [Compound 5.17, 6-N-[2-amino-2-(3-bromophenyl)ethyl]-4-N,1-dimethylpyrazolo[3,4-d]pyrimidine-4,6-diamine], the IC50 on BCDIN3D [1] (setting [3]) came to 470 nM; at BCDIN3D [2] (setting [4]), 1870 nM.
Turning to `Cn1ncc2c(NC(C)(C)C)nc(NCC(N)c3cccc(Br)c3)nc21` (centres unmarked) [Compound 5.18, N6-[2-amino-2-(3-bromophenyl)ethyl]-N4-tert-butyl-1-methyl-pyrazolo[3,4-d]pyrimidine-4,6-diamine], the IC50 against BCDIN3D [1] (setting [3]) is 47 nM; against BCDIN3D [2] (setting [4]), 27.8 nM.
For `CC(C)Nc1nc(NCC(N)c2ccc(Br)cc2)nc2c1cnn2C` (centres unmarked) [Compound 5.19, 6-N-[2-amino-2-(4-bromophenyl)ethyl]-1-methyl-4-N-propan-2-ylpyrazolo[3,4-d]pyrimidine-4,6-diamine], the IC50 at BCDIN3D [1] (setting [3]) was 375 nM; at BCDIN3D [2] (setting [4]) it was 767 nM.
For `Cn1ncc2c(NC(C)(C)C)nc(NCC(N)c3ccccc3Br)nc21` (centres unmarked) [Compound 5.20, N6-[2-amino-2-(2-bromophenyl)ethyl]-N4-tert-butyl-1-methyl-pyrazolo[3,4-d]pyrimidine-4,6-diamine], the IC50 on BCDIN3D [1] (setting [3]) worked out at 609 nM; on BCDIN3D [2] (setting [4]), 1120 nM.
Turning to `CNc1nc(NCC(N)c2ccc(C#N)cc2)nc2c1cnn2C` (centres unmarked) [Compound 5.21, 4-[1-amino-2-[[1-methyl-4-(methylamino)pyrazolo[3,4-d]pyrimidin-6-yl]amino]ethyl]benzonitrile], the IC50 at BCDIN3D [1] (setting [3]) came out at 3860 nM; on BCDIN3D [2] (setting [4]) it was 11100 nM.
On to `Cn1ncc2c(NC(C)(C)C)nc(NCC(N)c3cccc(C#N)c3)nc21` (centres unmarked) [Compound 5.22, 3-[1-amino-2-[[4-(tert-butylamino)-1-methyl-pyrazolo[3,4-d]pyrimidin-6-yl]amino]ethyl]benzonitrile], for which the 50% inhibitory concentration (IC50) on BCDIN3D [1] (setting [3]) turned out to be 42.8 nM; at BCDIN3D [2] (setting [4]), 129 nM.
In the case of `Cn1ncc2c(NC(C)(C)C(F)(F)F)nc(NC[C@H](N)c3cccc(C#N)c3)nc21` [Compound 5.23, 3-[(1R)-1-amino-2-[[1-methyl-4-[(2,2,2-trifluoro-1,1-dimethyl-ethyl)amino]pyrazolo[3,4-d]pyrimidin-6-yl]amino]ethyl]benzonitrile], the IC50 was 61.7 nM against BCDIN3D [1] (setting [3]) and 124 nM against BCDIN3D [2] (setting [4]).
In the same order, the values of `Cn1ncc2c(NC3CC(F)(F)C3)nc(NCC(N)c3cccnc3)nc21` (centres unmarked) [Compound 5.25, N6-[2-amino-2-(3-pyridyl)ethyl]-N4-(3,3-difluorocyclobutyl)-1-methyl-pyrazolo[3,4-d]pyrimidine-4,6-diamine] are 1810 nM and 5580 nM.
The like results for `Cn1ncc2c(NC(C)(C)C)nc(NCC(N)c3ccncc3)nc21` (centres unmarked) [Compound 5.26, N6-[2-amino-2-(4-pyridyl)ethyl]-N4-tert-butyl-1-methyl-pyrazolo[3,4-d]pyrimidine-4,6-diamine] were, in that order, 3390 nM and 5570 nM.
Take `Cn1ncc2c(NC3CC(F)(F)C3)nc(NCC(N)c3ccncc3)nc21` (centres unmarked) [Compound 5.27, N6-[2-amino-2-(4-pyridyl)ethyl]-N4-(3,3-difluorocyclobutyl)-1-methyl-pyrazolo[3,4-d]pyrimidine-4,6-diamine]: the IC50 against BCDIN3D [1] (setting [3]) is 2810 nM; against BCDIN3D [2] (setting [4]), 10000 nM.
Consider `Cn1ncc2c(NC(C)(C)C)nc(NC[C@H](N)c3ccc(C#N)cc3)nc21` [Compound 5.28, 4-[(1R)-1-amino-2-{[4-(tert-butylamino)-1-methyl-1H-pyrazolo[3,4-d]pyrimidin-6-yl]amino}ethyl]benzonitrile], for which the IC50 amounted to 90 nM at BCDIN3D [1] (setting [3]) and 370 nM at BCDIN3D [2] (setting [4]).
The like results for `CN[C@@H](CNc1nc(NC(C)(C)C)c2cnn(C)c2n1)c1ccccc1` [Compound 5.29, N4-tert-butyl-1-methyl-N6-[(2R)-2-(methylamino)-2-phenylethyl]-1H-pyrazolo[3,4-d]pyrimidine-4,6-diamine] were, in that order, 2780 nM and 1690 nM.
For the molecule `Cn1ncc2c(NC(C)(C)C)nc(NCC(N)c3cccc(C4CC4)c3)nc21` (centres unmarked) [Compound 5.32, N6-[2-amino-2-(3-cyclopropylphenyl)ethyl]-N4-tert-butyl-1-methyl-1H-pyrazolo[3,4-d]pyrimidine-4,6-diamine], the IC50 came to 70 nM against BCDIN3D [1] (setting [3]) and 120 nM at BCDIN3D [2] (setting [4]).
With `Cn1ncc2c(NC(C)(C)C)nc(NCC(N)c3ccc(C4CC4)cc3)nc21` (centres unmarked) [Compound 5.33, N6-[2-amino-2-(4-cyclopropylphenyl)ethyl]-N4-tert-butyl-1-methyl-1H-pyrazolo[3,4-d]pyrimidine-4,6-diamine], the IC50 at BCDIN3D [1] (setting [3]) is 130 nM; at BCDIN3D [2] (setting [4]), 150 nM.
Turning to `CCOc1nc(NCC(N)c2ccccc2)nc2c1cnn2C` (centres unmarked) [Compound 6.01, N′-(4-Ethoxy-1-methylpyrazolo[3,4-d]pyrimidin-6-yl)-1-phenylethane-1,2-diamine], the IC50 at BCDIN3D [1] (setting [5]) turned out to be 2510 nM; against BCDIN3D [2] (setting [6]), 6610 nM.
The like results for `CC(C)Oc1nc(NCC(N)c2ccccc2)nc2c1cnn2C` (centres unmarked) [Compound 6.04, N′-(1-methyl-4-propan-2-yloxypyrazolo[3,4-d]pyrimidin-6-yl)-1-phenylethane-1,2-diamine] were, in that order, 2620 nM and 4150 nM.
For the molecule `Cn1ncc2c(OC(C)(C)C)nc(NCC(N)c3ccccc3)nc21` (centres unmarked) [Compound 6.05, N′-(4-tert-butoxy-1-methyl-pyrazolo[3,4-d]pyrimidin-6-yl)-1-phenyl-ethane-1,2-diamine], the IC50 at BCDIN3D [1] (setting [5]) came to 4160 nM; against BCDIN3D [2] (setting [6]), 5140 nM.
In the same order, the values of `Cc1ccc(CNc2nc(N[C@H]3CCCC[C@H]3N)nc3c2cnn3C)cc1Cl` [Compound 7.02, 6-N-[(1S,2R)-2-aminocyclohexyl]-4-N-[(3-chloro-4-methylphenyl)methyl]-1-methylpyrazolo[3,4-d]pyrimidine-4,6-diamine] are 998 nM and 899 nM.
In the same order, the values of `Cn1ncc2c(NC3CC3)nc(NC[C@H](N)c3ccccc3)nc21` [Compound 7.04, N6-[(2R)-2-amino-2-phenyl-ethyl]-N4-cyclopropyl-1-methyl-pyrazolo[3,4-d]pyrimidine-4,6-diamine] are 3910 nM and 2970 nM.
The like results for `Cn1ncc2c(Nc3ccc(F)cc3)nc(NC[C@H](N)c3ccccc3)nc21` [Compound 7.05, N6-[(2R)-2-amino-2-phenyl-ethyl]-N4-(4-fluorophenyl)-1-methyl-pyrazolo[3,4-d]pyrimidine-4,6-diamine] were, in that order, 241 nM and 169 nM.
Consider `Cn1ncc2c(Nc3ccc(F)cc3)nc(NC[C@@H](N)c3ccccc3)nc21` [Compound 7.06, N6-[(2S)-2-amino-2-phenyl-ethyl]-N4-(4-fluorophenyl)-1-methyl-pyrazolo[3,4-d]pyrimidine-4,6-diamine], for which the IC50 on BCDIN3D [1] (setting [5]) was found to be 2190 nM; against BCDIN3D [2] (setting [6]), 2930 nM.
On to `Cn1ncc2c(NCC(F)(F)F)nc(NC[C@@H](N)c3ccccc3)nc21` [Compound 7.07, N6-[(2S)-2-amino-2-phenyl-ethyl]-1-methyl-N4-(2,2,2-trifluoroethyl)pyrazolo[3,4-d]pyrimidine-4,6-diamine], for which the figures for the IC50 at BCDIN3D [1] (setting [5]) and at BCDIN3D [2] (setting [6]) were 5620 nM and 4120 nM, respectively.
As to `Cn1ncc2c(Nc3ccc(C(F)(F)F)nc3)nc(NC[C@H](N)c3ccccc3)nc21` [Compound 7.08, N6-[(2R)-2-amino-2-phenyl-ethyl]-1-methyl-N4-[6-(trifluoromethyl)-3-pyridyl]pyrazolo[3,4-d]pyrimidine-4,6-diamine], the IC50 against BCDIN3D [1] (setting [5]) was 33.4 nM; on BCDIN3D [2] (setting [6]), 223 nM.
Consider `Cn1ncc2c(Nc3ccc(C(F)(F)F)nc3)nc(NC[C@@H](N)c3ccccc3)nc21` [Compound 7.09, N6-[(2S)-2-amino-2-phenyl-ethyl]-1-methyl-N4-[6-(trifluoromethyl)-3-pyridyl]pyrazolo[3,4-d]pyrimidine-4,6-diamine], for which the 50% inhibitory concentration (IC50) against BCDIN3D [1] (setting [5]) is 209 nM; against BCDIN3D [2] (setting [6]), 414 nM.

The term IC50 denotes the concentration needed to halve the response being measured. Read a high IC50 as a need for much substance.
